Results: publication PMC6902879 (Journal of medicinal chemistry, 2019)

Tests used:
E. coli (K-12) = assay: Antibacterial activity; type: cell-based; details: minimum inhibitory concentration, wild type E. coli (K-12)
HS-5 cells = details: 24 h; CL, CLsu and conjugates 20 μM; Cipro, TMP, TEL 0.5 μM
[1] = test system: ydgR, fepA, ompF deletion mutants of E. coli; type: cell-based; details: compared with wild-type E. coli
E. coli = assay: Antibacterial activity before and after treatment with porcine liver esterase; type: cell-based; details: [PLE] = 1 U/mL
[2] = Static light scattering before and after addition of PLE; type: physicochemical; details: compound 200 μM, [PLE] = 1 U/mL, 24 h
[3] = test system: esterase (bioH, yjfP, frsA, ybfF, yfbB, ypfH, yeiG or yqiA) deletion mutants of E. coli; assay: Antibacterial activity against esterase deletion mutants of E. coli; type: cell-based; details: eight single esterase gene deletion mutants
[4] = E. coli (K-12) lysate 0.1 U/mL, compound 200 μM, lysate activities normalized
Water solubility = type: physicochemical; details: in words only
[5] = Serum stability in human serum; details: human serum (from human male AB plasma), 200 μM, 37 °C, LC-MS

C[C@@H](NC(=O)CCC(=O)OC[C@@H](NC(=O)C(Cl)Cl)[C@H](O)c1ccc([N+](=O)[O-])cc1)C(=O)O [Compound 4a]
MIC (E. coli (K-12)): > 200 µM

CC[C@H]1OC(=O)[C@H](C)C(=O)[C@H](C)[C@@H](O[C@@H]2O[C@H](C)C[C@H](N(C)C)[C@H]2O)[C@](C)(OC)C[C@@H](C)C(=O)[C@H](C)[C@H]2N(CCCCn3cnc(-c4cccnc4)c3)C(=O)O[C@]12C [telithromycin]
cytotoxicity against HS-5 cells (HS-5 cells): relatively low cytotoxicity

NCCCC[C@@H](NC(=O)[C@@H](CCCCN)NC(=O)CCC(=O)OC[C@@H](NC(=O)C(Cl)Cl)[C@H](O)c1ccc([N+](=O)[O-])cc1)C(=O)O [Compound 2b]
effect of deletion of ydgR, fepA or ompF on bacterial viability under treatment [1]: hardly rescues the bacteria
change of inhibitory efficacy on addition of exogenous PLE (E. coli): hardly changes the inhibitory efficacy
intensity of static light scattering signal after addition of PLE [2]: increase drastically
reduction of antibacterial activity by deletion of a cytoplasmic esterase [3]: about 20%
apparent first-order rate constant of hydrolysis [4]: 0.317 h⁻¹

O=C(O)CNC(=O)[C@@H](CO)NC(=O)CCC(=O)OC[C@@H](NC(=O)C(Cl)Cl)[C@H](O)c1ccc([N+](=O)[O-])cc1 [Compound 1d]
effect of deletion of ydgR, fepA or ompF on bacterial viability under treatment [1]: hardly rescues the bacteria
change of inhibitory efficacy on addition of exogenous PLE (E. coli): hardly changes the inhibitory efficacy
intensity of static light scattering signal after addition of PLE [2]: increase drastically
reduction of antibacterial activity by deletion of a cytoplasmic esterase [3]: ~10%
apparent first-order rate constant of hydrolysis [4]: 1.267 h⁻¹

NCCCC[C@H](NC(=O)[C@H](CCCCN)NC(=O)CCC(=O)OC[C@@H](NC(=O)C(Cl)Cl)[C@H](O)c1ccc([N+](=O)[O-])cc1)C(=O)O [Compound 2c]
effect of deletion of ydgR, fepA or ompF on bacterial viability under treatment [1]: hardly rescues the bacteria
change of inhibitory efficacy on addition of exogenous PLE (E. coli): hardly changes the inhibitory efficacy
intensity of static light scattering signal after addition of PLE [2]: increase drastically
reduction of antibacterial activity by deletion of a cytoplasmic esterase [3]: about 20%
apparent first-order rate constant of hydrolysis [4]: 0.310 h⁻¹

COC(=O)CCC(=O)OC[C@@H](NC(=O)C(Cl)Cl)[C@H](O)c1ccc([N+](=O)[O-])cc1 [Compound 4b]
water solubility (Water solubility): water-insoluble
MIC (E. coli (K-12)): >200 µM

O=C(CCC(=O)OC[C@@H](NC(=O)C(Cl)Cl)[C@H](O)c1ccc([N+](=O)[O-])cc1)NCC(=O)N[C@H](CO)C(=O)O [Compound 1c]
time to complete hydrolysis [5]: ≤ 2 h
effect of deletion of ydgR, fepA or ompF on bacterial viability under treatment [1]: hardly rescues the bacteria
change of inhibitory efficacy on addition of exogenous PLE (E. coli): hardly changes the inhibitory efficacy
intensity of static light scattering signal after addition of PLE [2]: increase drastically
reduction of antibacterial activity by deletion of a cytoplasmic esterase [3]: about 20%
apparent first-order rate constant of hydrolysis [4]: 3.763 h⁻¹

O=C(O)CCC(=O)OC[C@@H](NC(=O)C(Cl)Cl)[C@H](O)c1ccc([N+](=O)[O-])cc1 [CLsu, chloramphenicol succinate, reference compound]
cytotoxicity against HS-5 cells (HS-5 cells): lower cytotoxicity than CL
conversion to CL after 24 h ([5]; 24 h): less than 15%

O=C(O)C[C@@H](NC(=O)[C@@H](CC(=O)O)NC(=O)CCC(=O)OC[C@@H](NC(=O)C(Cl)Cl)[C@H](O)c1ccc([N+](=O)[O-])cc1)C(=O)O [Compound 2h]
MIC (E. coli (K-12)): > 200 µM

O=C(O)CC[C@@H](NC(=O)[C@@H](CCC(=O)O)NC(=O)CCC(=O)OC[C@@H](NC(=O)C(Cl)Cl)[C@H](O)c1ccc([N+](=O)[O-])cc1)C(=O)O [Compound 2g]
MIC (E. coli (K-12)): > 200 µM
